Earlier results on two compounds are cited in patent US20220313629A1, “TRANSIENT POTENTIAL MELASTATIN 8 (TRPM8) ANTAGONISTS AND RELATED METHODS” (MARSHALL UNIVERSITY RESEARCH CORPORATION, priority 2019, published 2022).

The test system of one data set is rat and human TRPM8. Particulars: literature; read-out: IC50 values against menthol, icilin and cold activation at rat and human TRPM8; cited from earlier work.
A further data set deals with TRPM8 (Homo sapiens, UniProt Q7Z2W7). Particulars: literature value; read-out: IC50 in whole-cell patch-clamp assay (reported); cited from earlier work.
Chain of TRPM8 (Q7Z2W7 whole entry): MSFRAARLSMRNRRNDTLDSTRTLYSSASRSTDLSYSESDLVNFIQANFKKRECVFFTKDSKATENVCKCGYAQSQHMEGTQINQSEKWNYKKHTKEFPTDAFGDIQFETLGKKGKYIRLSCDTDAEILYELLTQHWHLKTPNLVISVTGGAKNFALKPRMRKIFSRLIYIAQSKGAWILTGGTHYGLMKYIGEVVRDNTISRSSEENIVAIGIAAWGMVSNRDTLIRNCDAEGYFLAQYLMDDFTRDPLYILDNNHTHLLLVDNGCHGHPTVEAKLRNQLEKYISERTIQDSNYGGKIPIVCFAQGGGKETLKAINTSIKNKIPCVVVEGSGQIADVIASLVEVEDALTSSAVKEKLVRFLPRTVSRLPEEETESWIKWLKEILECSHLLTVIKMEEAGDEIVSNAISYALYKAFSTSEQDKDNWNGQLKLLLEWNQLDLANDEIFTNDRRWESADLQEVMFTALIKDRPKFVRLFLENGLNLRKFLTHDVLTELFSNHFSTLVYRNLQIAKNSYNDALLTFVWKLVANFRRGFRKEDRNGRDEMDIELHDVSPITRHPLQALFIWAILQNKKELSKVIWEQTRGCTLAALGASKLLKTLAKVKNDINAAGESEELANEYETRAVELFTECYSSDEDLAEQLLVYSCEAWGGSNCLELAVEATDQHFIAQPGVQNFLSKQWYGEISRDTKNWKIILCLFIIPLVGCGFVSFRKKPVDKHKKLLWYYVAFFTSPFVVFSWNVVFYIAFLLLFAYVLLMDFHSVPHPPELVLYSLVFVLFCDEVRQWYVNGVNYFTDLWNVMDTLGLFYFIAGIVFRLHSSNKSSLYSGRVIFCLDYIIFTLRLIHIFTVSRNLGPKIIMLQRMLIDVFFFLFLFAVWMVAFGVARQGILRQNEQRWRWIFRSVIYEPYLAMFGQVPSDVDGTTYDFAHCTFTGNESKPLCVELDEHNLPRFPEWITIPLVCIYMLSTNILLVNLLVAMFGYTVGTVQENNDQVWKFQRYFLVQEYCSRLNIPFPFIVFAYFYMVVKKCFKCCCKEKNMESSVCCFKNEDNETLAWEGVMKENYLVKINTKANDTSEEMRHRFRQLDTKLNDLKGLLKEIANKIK

For the compound `C[C@H](NC(=O)N1CCc2cccnc2[C@H]1c1ccc(C(F)(F)F)cc1)C(F)(F)F` [AMG2850], the IC50 in the data set on rat and human TRPM8 is 7 to 156 nM.

On to `COc1cc(CN(CCN)C(=O)OC(C)c2ccccc2)ccc1OCc1ccccc1` (centres unmarked) [PBMC], for which the IC50 at TRPM8 was 0.4 to 0.6 nM.

A word on the IC50: it is the point on the concentration scale where inhibition reaches its midpoint.
